test system: Rattus norvegicus; assay: Effect of the compound (50 mg/kg, po) on rat blood sugar level which was given an oral glucose load (1 g/kg) 1 hr after the administration of compound; format: functional

| Structure (SMILES) | Change in rat blood sugar |
| --- | --- |
| COc1ccc(Cl)cc1C(=O)NCCc1ccccc1 | -7% |
| COc1ccc(Cl)cc1C(=O)NCCc1ccc(C(C)=O)cc1 | -11% |
| COc1ccc(Cl)cc1C(=O)NCCc1ccc(O)cc1 | 2% |
| COc1ccc(Cl)cc1C(=O)NCCc1ccc(Cl)cc1 | 0% |
| COc1ccc(Cl)cc1C(=O)NCCc1ccc(OCC(=O)O)cc1 | -9% |
| COc1ccc(Cl)cc1C(=O)NCCCCCC(=O)O | 9% |
| COc1ccc(Cl)cc1C(=O)NCCc1ccc([N+](=O)[O-])cc1 | 2% |
| C=Cc1ccc(CCNC(=O)c2cc(Cl)ccc2OC)cc1 | -6% |
| COc1ccc(Cl)cc1C(=O)NCCc1ccc(C(F)(F)F)cc1 | -3% |
| CCc1ccc(CCNC(=O)c2cc(Cl)ccc2OC)cc1 | -4% |
| COc1ccc(Cl)cc1C(=O)NCCc1ccc(N)cc1 | 7% |
| COc1ccc(Cl)cc1C(=O)NCCc1ccc(C(=O)O)cc1 [MEGLITINIDE] | -63% |
| COc1ccc(Cl)cc1C(=O)NCCc1ccc(C)cc1 | -55% |
| COc1ccc(Cl)cc1C(=O)NCCc1ccc(C(C)O)cc1 (stereo not given) | -11% |
| COc1ccc(Cl)cc1C(=O)NCCc1ccc(S(=O)(=O)NC(=O)NC2CCCCC2)cc1 [GLYBURIDE] | -44% |
